Measured values from US20240239790A1, “7-Morpholino-1,6-Naphthyridin-5-yl Derivatives and Pharmaceutical Compositions Thereof Useful as DNA-PK Inhibitor” (adMare Therapeutics Society, priority 2021, published 2024).
Read-outs that look alike come from different tables or passages of the source.

Assays:
[1] = molecular target: T1, DNA-PK phosphorylation at Serine 2056 (Homo sapiens, UniProt P78527); experiment: Cellular Assay for Inhibition of DNA-PK Phosphorylation at Serine 2056 in FaDu cells (sandwich ELISA, neocarzinostatin); type: cell-based; settings: pSer2056 DNA-PK, Table 3
T1 construct: FaDu cells were purchased from ATCC; host or cells: FaDu
Method: FaDu cells were purchased from ATCC and maintained in MEM alpha medium (Life Technologies, cat. no. 12561) supplemented with 10% fetal bovine serum, and 1% GlutaMAX at 37° C. supplemented with 5% CO2. 50,000 cells were seeded to each well of a 96-well cell culture plate in 50 μL of culture medium and incubated for 16-24 hours. Three-fold serially diluted compounds were prepared in DMSO. Culture media was used to prepare compound treatments to 0.3% DMSO (dimethyl sulphoxide) content. Compound treatments were added to the cells for 1 hour prior incubation, followed by the addition of neocarzinostatin in fresh culture medium to 1 μg/mL final concentration for an additional 2 hours incubation to induce DNA DSBs (double-strand breaks). DMSO controls were incubated with fresh culture medium alone for the additional two hours incubation. The cells were then lysed and frozen at −20° C. Cell lysates were thawed on wet ice and protein concentrations quantified by BCA Protein Assay (Thermo #23225). Lysis buffer was used to normalize lysates by protein content and all lysates were then investigated by sandwich ELISA by means of DNA-PK-specific antibodies (Abcam ab44815: total DNA-PK; ab124918: phosphoserine-2056 DNA-PK) in sandwich ELISA format on the MSD S600MM platform (MesoScale Discovery). % inhibition was calculated for all data points: =1−(DATA_PT−AVERAGE(DMSO controls))/(AVERAGE(NCS controls)−AVERAGE(DMSO controls)). Logarithm of the molar concentration of compound was plotted against percent inhibition to calculate IC50 values, with curve fit settings for data fit to log(inhibitor) vs. normalized response—Variable slope using curve fit software (GraphPad Prism).

[2] = tested on: pH2AX induction in HCT116 ATM-/- multicellular tumour spheroids; experiment: Prodrug Radiation Sensitization in Multicellular Tumour Spheroids, inhibition of pH2AX induction following radiation; type: cell-based; settings: Homo sapiens, HCT-116, 20 Gy
Method: Prodrug compounds were assayed to determine their potency in 3D multicellular spheroids in media maintained under 20% vs 5% oxygen. Multicellular tumour spheroids were grown to approximately 0.5 mm in diameter and irradiated with 20 Gy in combination with inhibitor test compounds to determine their potency using HCT 116 and FaDu cell lines. Experiments were carried out in 96 well plates containing 0.7 mls of MEM media containing 10% FBS and 10 mM glucose under 5% CO2 at 37° C. Following dilution of compounds 1:1000 from DMSO stocks, compounds were serially diluted from 10 μM down to 3.5 nM and 5-10 spheroids added. 96 well plates were constantly stirred to avoid spheroids settling during the course of the experiment. Endpoints were pDNA-PK (ser 2056) or pH2AX (ser 139) status in spheroid cryosections taken 1 or 2 hours following radiation and fixed immediately in formalin. Using tumour cell lines deficient in ATM improved the assay signal to noise and gH2AX readout. Using this assay prodrug activity could be compared in the more oxygenated outer spheroid layers versus less oxygenated hypoxic central cell layers.

FaDu cell line = experiment: Prodrug Activation in Hypoxic Stirred Tumour Cell Suspensions; settings: 10 μM, 4 hours
[3] = 5% O2, inner layers, read-out: Prodrug 5% O2 Inner layers EC50
[4] = 5% O2, outer layers, read-out: Prodrug 5% O2 Outer layers EC50
[5] = 20% O2, outer layers, read-out: Prodrug 20% O2 Outer layers EC50

IC50 [1]	Fraction of prodrug converted to active form, Hypoxic 0.2% O2 (FaDu cell line)	Fraction of prodrug converted to active form, Oxic 5% O2 (FaDu cell line)	Structure (SMILES)	EC50 [2, 3]	EC50 [2, 4]	EC50 [2, 5]
100 to 1000 nM	A (A is 0.15 to 1)	B (B is 0.05 to 0.15)	CC(Oc1cnc2cc(N3CCOCC3)nc(O[C@H]3CC[C@@H](Nc4ncc(OCCN5CCOCC5)cn4)CC3)c2c1)c1cnc([N+](=O)[O-])n1C (stereo partly drawn) [LFA2049, N-[4-[[3-[1-(3-methyl-2-nitro-imidazol-4-yl)ethoxy]-7-morpholino-1,6-naphthyridin-5-yl]oxy]cyclohexyl]-5-(2-morpholinoethoxy)pyrimidin-2-amine]	10 to 500 nM	500 to 1000 nM	1000 to 10000 nM
1000 to 10000 nM	B (B is 0.05 to 0.15)	D (D is 0 to 0.02)	CC(Oc1cnc2cc(N3CCOCC3)nc(OC3CCC(Nc4ncc(OCCN5CCN(C)CC5)cn4)CC3)c2c1)c1cnn(C)c1[N+](=O)[O-] (stereo not drawn) [LFA2089, N-[4-[[3-[1-(1-methyl-5-nitro-pyrazol-4-yl)ethoxy]-7-morpholino-1,6-naphthyridin-5-yl]oxy]cyclohexyl]-5-[2-(4-methylpiperazin-1-yl)ethoxy]pyrimidin-2-amine]	1000 to 10000 nM	1000 to 10000 nM	1000 to 10000 nM
1000 to 10000 nM	B (B is 0.05 to 0.15)	D (D is 0 to 0.02)	CN(C)CCOc1cnc(N[C@H]2CC[C@@H](Oc3nc(N4CCOCC4)cc4ncc(OCc5cnc([N+](=O)[O-])n5C)cc34)CC2)nc1 [LFA2088, 5-[2-(dimethylamino)ethoxy]-N-[4-[[3-[(3-methyl-2-nitro-imidazol-4-yl)methoxy]-7-morpholino-1,6-naphthyridin-5-yl]oxy]cyclohexyl]pyrimidin-2-amine]	1000 to 10000 nM	1000 to 10000 nM	1000 to 10000 nM
1000 to 10000 nM	B (B is 0.05 to 0.15)	D (D is 0 to 0.02)	CC(c1cnc([N+](=O)[O-])n1C)N(c1cnc2cc(N3CCOCC3)nc(OC3CCC(c4cnccn4)CC3)c2c1)S(C)(=O)=O (stereo not drawn) [LFA2043, N-[1-(3-methyl-2-nitro-imidazol-4-yl)ethyl]-N-[7-morpholino-5-(4-pyrazin-2-ylcyclohexoxy)-1,6-naphthyridin-3-yl]methanesulfonamide]	10 to 500 nM	500 to 1000 nM	1000 to 10000 nM
10000 to 30000 nM	B (B is 0.05 to 0.15)	D (D is 0 to 0.02)	CC(c1cnc([N+](=O)[O-])n1C)N(c1cnc2cc(N3CCOCC3)nc(O[C@H]3CC[C@@H](Nc4ncc(CN5CCOCC5)cn4)CC3)c2c1)S(C)(=O)=O (stereo partly drawn) [LFA2053, N-[1-(3-methyl-2-nitro-imidazol-4-yl)ethyl]-N-[7-morpholino-5-[4-[[5-(morpholinomethyl)pyrimidin-2-yl]amino]cyclohexoxy]-1,6-naphthyridin-3-yl]methanesulfonamide]	10 to 500 nM	500 to 1000 nM	1000 to 10000 nM
10000 to 30000 nM	A (A is 0.15 to 1)	C (C is 0.02 to 0.05)	CN1CCN(c2cnc(N[C@H]3CC[C@@H](Oc4nc(N5CCOCC5)cc5ncc(OCc6cnc([N+](=O)[O-])n6C)cc45)CC3)nc2)CC1 [LFA2065, N-[4-[[3-[(3-methyl-2-nitro-imidazol-4-yl)methoxy]-7-morpholino-1,6-naphthyridin-5-yl]oxy]cyclohexyl]-5-(4-methylpiperazin-1-yl)pyrimidin-2-amine]	10 to 500 nM	1000 to 10000 nM	1000 to 10000 nM
10000 to 30000 nM	A (A is 0.15 to 1)	B (B is 0.05 to 0.15)	CC(Oc1cnc2cc(N3CCOCC3)nc(O[C@H]3CC[C@@H](c4cnccn4)CC3)c2c1)c1cnc([N+](=O)[O-])n1C (stereo partly drawn) [LFA2041, 4-[3-[1-(3-methyl-2-nitro-imidazol-4-yl)ethoxy]-5-(4-pyrazin-2-ylcyclohexoxy)-1,6-naphthyridin-7-yl]morpholine]	10 to 500 nM	1000 to 10000 nM	1000 to 10000 nM
100 to 1000 nM	B (B is 0.05 to 0.15)	D (D is 0 to 0.02)	Cc1cc(C)nc(N[C@H]2CC[C@@H](Oc3nc(N4CCOCC4)cc4ncc(N(Cc5cnc([N+](=O)[O-])n5C)S(C)(=O)=O)cc34)CC2)n1 [LFA2098, N-[5-[4-[(4,6-dimethylpyrimidin-2-yl)amino]cyclohexoxy]-7-morpholino-1,6-naphthyridin-3-yl]-N-[(3-methyl-2-nitro-imidazol-4-yl)methyl]methanesulfonamide]	1000 to 10000 nM	1000 to 10000 nM	1000 to 10000 nM
1000 to 10000 nM	B (B is 0.05 to 0.15)	B (B is 0.05 to 0.15)	CC(c1cnn(C)c1[N+](=O)[O-])N(c1cnc2cc(N3CCOCC3)nc(OC3CCC(Nc4ccn5nccc5n4)CC3)c2c1)S(C)(=O)=O (stereo not drawn) [LFA2050, N-[1-(1-methyl-5-nitro-pyrazol-4-yl)ethyl]-N-[7-morpholino-5-[4-(pyrazolo[1,5-a]pyrimidin-5-ylamino)cyclohexoxy]-1,6-naphthyridin-3-yl]methanesulfonamide]	10 to 500 nM	1000 to 10000 nM	1000 to 10000 nM
10000 to 30000 nM	A (A is 0.15 to 1)	D (D is 0 to 0.02)	CC(c1cnc([N+](=O)[O-])n1C1CC1)N(c1cnc2cc(N3CCOCC3)nc(OC3CCC(Nc4ccn5nccc5n4)CC3)c2c1)S(C)(=O)=O (stereo not drawn) [LFA2051, N-[1-(3-cyclopropyl-2-nitro-imidazol-4-yl)ethyl]-N-[7-morpholino-5-[4-(pyrazolo[1,5-a]pyrimidin-5-ylamino)cyclohexoxy]-1,6-naphthyridin-3-yl]methanesulfonamide]	10 to 500 nM	1000 to 10000 nM	1000 to 10000 nM
10000 to 30000 nM	D (D is 0 to 0.02)	D (D is 0 to 0.02)	CC(NS(=O)(=O)c1cnc2cc(N3CCOCC3)nc(O[C@H]3CC[C@@H](Nc4ncc(C(F)(F)F)cn4)CC3)c2c1)c1cnc([N+](=O)[O-])n1C (stereo partly drawn) [LFA2092, N-[1-(3-methyl-2-nitro-imidazol-4-yl)ethyl]-7-morpholino-5-[4-[[5-(trifluoromethyl)pyrimidin-2-yl]amino]cyclohexoxy]-1,6-naphthyridine-3-sulfonamide]	10000 to 100000 nM	10000 to 100000 nM	1000 to 10000 nM
1000 to 10000 nM	B (B is 0.05 to 0.15)	C (C is 0.02 to 0.05)	CC(c1cnc([N+](=O)[O-])n1C)N(c1cnc2cc(N3CCOCC3)nc(O[C@H]3CC[C@@H](Nc4ncc(CCN5CCOCC5)cn4)CC3)c2c1)S(C)(=O)=O (stereo partly drawn) [LFA2074, N-[1-(3-methyl-2-nitro-imidazol-4-yl)ethyl]-N-[7-morpholino-5-[4-[[5-(2-morpholinoethyl)pyrimidin-2-yl]amino]cyclohexoxy]-1,6-naphthyridin-3-yl]methanesulfonamide]	10 to 500 nM	500 to 1000 nM	1000 to 10000 nM
1000 to 10000 nM	B (B is 0.05 to 0.15)	B (B is 0.05 to 0.15)	Cn1ncc(CN(c2cnc3cc(N4CCOCC4)nc(O[C@H]4CC[C@@H](Nc5ncc(OCCN6CCOCC6)cn5)CC4)c3c2)S(C)(=O)=O)c1[N+](=O)[O-] [LFA2076, N-[(1-methyl-5-nitro-pyrazol-4-yl)methyl]-N-[7-morpholino-5-[4-[[5-(2-morpholinoethoxy)pyrimidin-2-yl]amino]cyclohexoxy]-1,6-naphthyridin-3-yl]methanesulfonamide]	10 to 500 nM	10 to 500 nM	10 to 500 nM
